Test results: ChEMBL document CHEMBL1201862, “PubChem BioAssay data set” (2004)
Activity calls are given as the source filed them.

What was measured:
[1] = molecular target: T1, Carboxy-terminal domain RNA polymerase II polypeptide A small phosphatase 1 (Homo sapiens, UniProt Q9GZU7); test: inhibitors of CTDSP1, concentration-response testing, biochemical assay, absorbance-based, actives from ultra-high-throughput screening (AID 540297); assay type: functional
T1 sequence (Q9GZU7 whole entry): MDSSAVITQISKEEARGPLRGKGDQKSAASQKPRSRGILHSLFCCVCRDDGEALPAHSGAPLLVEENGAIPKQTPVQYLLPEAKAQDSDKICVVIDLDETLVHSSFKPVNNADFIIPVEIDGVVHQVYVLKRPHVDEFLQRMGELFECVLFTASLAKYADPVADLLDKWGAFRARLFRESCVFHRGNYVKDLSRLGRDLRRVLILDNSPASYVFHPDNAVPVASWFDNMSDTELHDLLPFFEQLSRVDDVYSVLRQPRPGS

[2] = molecular target: T2, Tyrosine-protein phosphatase non-receptor type 22 (Homo sapiens, UniProt Q9Y2R2); test: LYP phosphatase inhibition for selectivity, dose response, selectivity assay for LMPTP inhibitor project, biochemical, fluorescence, LYP catalytic domain (AID 652006); assay type: functional; settings: read-out: IC50_Mean
T2 sequence (Q9Y2R2 whole entry): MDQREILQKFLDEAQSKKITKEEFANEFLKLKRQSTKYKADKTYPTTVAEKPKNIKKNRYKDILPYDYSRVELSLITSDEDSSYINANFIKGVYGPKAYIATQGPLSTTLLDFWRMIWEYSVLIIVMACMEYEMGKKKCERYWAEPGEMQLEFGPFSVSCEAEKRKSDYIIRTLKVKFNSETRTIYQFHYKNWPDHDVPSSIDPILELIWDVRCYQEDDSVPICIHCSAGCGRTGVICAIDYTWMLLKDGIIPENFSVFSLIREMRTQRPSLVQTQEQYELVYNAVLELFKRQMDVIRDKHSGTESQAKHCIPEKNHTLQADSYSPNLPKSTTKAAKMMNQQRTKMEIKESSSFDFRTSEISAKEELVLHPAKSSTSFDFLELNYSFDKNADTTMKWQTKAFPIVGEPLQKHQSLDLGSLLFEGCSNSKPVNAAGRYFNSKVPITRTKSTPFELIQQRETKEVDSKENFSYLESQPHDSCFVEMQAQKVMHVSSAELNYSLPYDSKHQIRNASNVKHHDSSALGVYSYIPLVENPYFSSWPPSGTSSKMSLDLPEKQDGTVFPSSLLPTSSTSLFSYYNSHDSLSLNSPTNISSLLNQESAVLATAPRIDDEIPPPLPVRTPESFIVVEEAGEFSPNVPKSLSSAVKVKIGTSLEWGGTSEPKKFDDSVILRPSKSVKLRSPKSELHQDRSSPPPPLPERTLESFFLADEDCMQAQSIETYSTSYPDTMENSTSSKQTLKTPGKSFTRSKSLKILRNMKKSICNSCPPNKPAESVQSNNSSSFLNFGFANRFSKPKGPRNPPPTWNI

[3] = molecular target: T3, Low molecular weight phosphotyrosine protein phosphatase (Homo sapiens, UniProt P24666); assay type: functional; settings: read-out: IC50_Mean
T3 sequence (P24666 whole entry): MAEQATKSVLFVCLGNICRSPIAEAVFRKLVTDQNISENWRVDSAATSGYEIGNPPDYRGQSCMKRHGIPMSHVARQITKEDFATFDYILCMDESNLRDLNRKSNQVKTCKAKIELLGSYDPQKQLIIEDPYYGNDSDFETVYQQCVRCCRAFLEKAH

[4] = molecular target: Tyrosine-protein phosphatase non-receptor type 11 (Homo sapiens, UniProt Q06124); test: SHP2 phosphatase inhibition, dose response, selectivity assay for STEP inhibitor project, biochemical (AID 602367); assay type: functional; settings: read-out: IC50_Mean
[5] = molecular target: Tyrosine-protein phosphatase non-receptor type 5 (Homo sapiens, UniProt P54829); test: STEP phosphatase inhibitors, confirmation, biochemical, fluorescence intensity, uHTS hits (AID 602372); assay type: functional; settings: read-out: IC50_Mean
[6] = molecular target: T3, Low molecular weight phosphotyrosine protein phosphatase; assay type: functional; settings: read-out: IC50_Mean; remark: listed apart in the source
[7] = molecular target: Dual specificity protein phosphatase 3 (Homo sapiens, UniProt P51452); test: VHR phosphatase inhibition, dose response, selectivity assay for STEP inhibitor project, biochemical (AID 602374); assay type: functional; settings: read-out: IC50_Mean
[8] = molecular target: T4, ATP-dependent translocase ABCB1 (Homo sapiens, UniProt P08183); test: ABCG2 efflux pump inhibitor potency, dose response, Ig-MXP3 cells, JC-1, flow cytometry, set 2 (AID 504566); assay type: functional; settings: read-out: EC50_MICROM_;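 also: flow cytometry median green fluorescence of retained JC-1 dye; potency of efflux pump inhibition measured as rising substrate retention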
[9] = molecular target: T4, ATP-dependent translocase ABCB1; test: ABCB1 efflux inhibitor potency, dose response, Jurkat-DNR cells, JC-1, flow cytometry, set 2 (AID 504569); assay type: functional; settings: read-out: EC50_MICROM_;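 also: potency of pump inhibitors that raise cellular JC-1 green fluorescence up to the nicardipine level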
[10] = ARNT/TACC3 interaction disruptors, potency, confirmation, biochemical, AlphaScreen, cherry-picked samples (AID 651703); assay type: functional, Homo sapiens;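 also: His-tagged ARNT PAS-B domain paired with GST-TACC3 E629A dimer coactivator fragment; potency of inhibitors that break up the complex and lower AlphaScreen signal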
[11] = molecular target: Hepatocyte nuclear factor 4-alpha (Homo sapiens, UniProt P41235); assay type: functional, cell-based;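 also: biochemical luminescence-based dose-response counterscreen measuring inhibition of HNF4 dimerization, run alongside a screen for blockers of ABHD5–perilipin-5 interaction; split luciferase complementation of HNF4 fusion proteins in cell lysate measuring dimerization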
[12] = molecular target: T5, Probable nicotinate-nucleotide adenylyltransferase (Staphylococcus aureus (strain N315), UniProt P65502); assay type: functional, Staphylococcus aureus subsp. aureus N315; settings: read-out: IC50_Mean;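 as to IC50 Mean: confirmatory dose-response retesting of NadD inhibitor hits first found in an ultra-high-throughput screen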
[13] = molecular target: T6, Heat shock factor protein 1 (Mus musculus, UniProt P38532); test: HSF1 potentiators in luciferase reporter cells, confirmation, cell-based, NIH3T3, luminescence, dose retest (AID 435004); assay type: functional;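 also: stress induced by proteasome inhibitor MG132 added 30 min after compound; luciferase reporter driven by HSF1 response element in NIH3T3 cells; actives raise luminescence as potentiators of the MG132 stress response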
T6 sequence (P38532 whole entry): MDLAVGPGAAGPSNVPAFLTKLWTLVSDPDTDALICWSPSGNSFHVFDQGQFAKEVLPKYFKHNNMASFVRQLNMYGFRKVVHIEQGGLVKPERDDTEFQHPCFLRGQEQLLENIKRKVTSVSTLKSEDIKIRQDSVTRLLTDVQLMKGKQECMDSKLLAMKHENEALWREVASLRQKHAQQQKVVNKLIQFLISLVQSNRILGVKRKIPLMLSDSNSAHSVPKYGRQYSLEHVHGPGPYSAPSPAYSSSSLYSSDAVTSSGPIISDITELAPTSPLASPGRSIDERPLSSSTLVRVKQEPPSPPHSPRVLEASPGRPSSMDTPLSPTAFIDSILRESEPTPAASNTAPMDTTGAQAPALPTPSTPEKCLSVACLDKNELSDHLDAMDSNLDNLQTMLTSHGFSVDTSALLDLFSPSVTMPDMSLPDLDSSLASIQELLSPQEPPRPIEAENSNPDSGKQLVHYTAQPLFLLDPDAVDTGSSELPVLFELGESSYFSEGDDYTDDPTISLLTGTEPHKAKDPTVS

[14] = molecular target: T5, Probable nicotinate-nucleotide adenylyltransferase; assay type: functional, Staphylococcus aureus subsp. aureus N315

T5 sequence (P65502 whole entry): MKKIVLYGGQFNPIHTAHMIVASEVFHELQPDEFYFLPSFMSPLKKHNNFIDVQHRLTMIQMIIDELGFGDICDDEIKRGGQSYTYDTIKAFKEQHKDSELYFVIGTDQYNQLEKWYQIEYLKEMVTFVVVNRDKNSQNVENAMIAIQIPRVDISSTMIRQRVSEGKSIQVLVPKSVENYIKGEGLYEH
T4 sequence (P08183 whole entry): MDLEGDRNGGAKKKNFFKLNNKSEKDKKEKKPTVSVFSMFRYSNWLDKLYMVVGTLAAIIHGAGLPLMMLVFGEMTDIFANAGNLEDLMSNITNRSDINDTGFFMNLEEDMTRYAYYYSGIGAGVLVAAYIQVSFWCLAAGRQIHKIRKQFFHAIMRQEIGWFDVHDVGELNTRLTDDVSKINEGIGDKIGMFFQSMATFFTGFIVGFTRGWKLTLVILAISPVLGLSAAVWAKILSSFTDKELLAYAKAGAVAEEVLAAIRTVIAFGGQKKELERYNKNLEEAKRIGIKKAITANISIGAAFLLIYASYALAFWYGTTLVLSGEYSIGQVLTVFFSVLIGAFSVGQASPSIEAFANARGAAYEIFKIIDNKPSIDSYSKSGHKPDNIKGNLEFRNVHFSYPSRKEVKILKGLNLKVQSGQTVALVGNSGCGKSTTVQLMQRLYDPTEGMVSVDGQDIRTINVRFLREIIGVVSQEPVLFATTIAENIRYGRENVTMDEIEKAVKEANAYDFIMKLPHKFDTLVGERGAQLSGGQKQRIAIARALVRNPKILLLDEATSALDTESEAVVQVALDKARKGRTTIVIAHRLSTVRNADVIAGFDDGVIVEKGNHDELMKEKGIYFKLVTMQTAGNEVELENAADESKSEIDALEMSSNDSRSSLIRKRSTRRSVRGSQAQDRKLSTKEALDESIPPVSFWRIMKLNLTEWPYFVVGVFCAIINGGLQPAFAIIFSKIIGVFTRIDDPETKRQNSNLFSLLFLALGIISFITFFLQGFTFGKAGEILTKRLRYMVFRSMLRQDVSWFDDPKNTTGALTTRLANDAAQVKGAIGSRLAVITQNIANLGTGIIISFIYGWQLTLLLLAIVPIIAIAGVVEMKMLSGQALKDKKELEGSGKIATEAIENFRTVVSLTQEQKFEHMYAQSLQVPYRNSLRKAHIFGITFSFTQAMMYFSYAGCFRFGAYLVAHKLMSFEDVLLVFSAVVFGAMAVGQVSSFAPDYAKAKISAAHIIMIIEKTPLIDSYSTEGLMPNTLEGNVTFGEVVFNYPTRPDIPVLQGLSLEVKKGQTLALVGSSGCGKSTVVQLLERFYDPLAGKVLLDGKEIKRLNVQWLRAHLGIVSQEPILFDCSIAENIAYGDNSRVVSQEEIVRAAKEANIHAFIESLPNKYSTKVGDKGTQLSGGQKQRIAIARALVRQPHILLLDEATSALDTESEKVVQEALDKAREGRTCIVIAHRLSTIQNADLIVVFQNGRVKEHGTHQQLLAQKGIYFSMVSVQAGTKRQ
Sequence of Tyrosine-protein phosphatase non-receptor type 11 (Q06124 whole entry): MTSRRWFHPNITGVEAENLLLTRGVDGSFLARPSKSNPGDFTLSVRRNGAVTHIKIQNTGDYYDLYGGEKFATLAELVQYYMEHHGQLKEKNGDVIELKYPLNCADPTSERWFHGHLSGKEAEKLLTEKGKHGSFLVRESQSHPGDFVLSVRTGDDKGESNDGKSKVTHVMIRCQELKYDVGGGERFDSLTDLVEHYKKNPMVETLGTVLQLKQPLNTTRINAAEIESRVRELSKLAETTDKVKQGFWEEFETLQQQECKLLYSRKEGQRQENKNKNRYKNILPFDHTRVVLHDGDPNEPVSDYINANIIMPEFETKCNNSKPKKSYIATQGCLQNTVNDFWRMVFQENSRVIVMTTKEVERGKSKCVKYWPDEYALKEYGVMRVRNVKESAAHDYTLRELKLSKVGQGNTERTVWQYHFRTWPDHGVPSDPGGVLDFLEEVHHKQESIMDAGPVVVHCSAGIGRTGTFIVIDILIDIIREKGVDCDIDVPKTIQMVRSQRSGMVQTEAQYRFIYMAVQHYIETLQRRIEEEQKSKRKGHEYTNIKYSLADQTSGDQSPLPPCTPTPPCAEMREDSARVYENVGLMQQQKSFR
Sequence of Dual specificity protein phosphatase 3 (P51452 whole entry): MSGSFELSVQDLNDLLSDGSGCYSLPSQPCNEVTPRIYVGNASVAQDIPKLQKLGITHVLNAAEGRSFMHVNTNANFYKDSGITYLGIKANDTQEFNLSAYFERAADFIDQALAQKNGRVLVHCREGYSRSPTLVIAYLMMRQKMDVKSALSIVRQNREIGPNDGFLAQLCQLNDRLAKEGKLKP
Sequence of Tyrosine-protein phosphatase non-receptor type 5 (P54829 whole entry): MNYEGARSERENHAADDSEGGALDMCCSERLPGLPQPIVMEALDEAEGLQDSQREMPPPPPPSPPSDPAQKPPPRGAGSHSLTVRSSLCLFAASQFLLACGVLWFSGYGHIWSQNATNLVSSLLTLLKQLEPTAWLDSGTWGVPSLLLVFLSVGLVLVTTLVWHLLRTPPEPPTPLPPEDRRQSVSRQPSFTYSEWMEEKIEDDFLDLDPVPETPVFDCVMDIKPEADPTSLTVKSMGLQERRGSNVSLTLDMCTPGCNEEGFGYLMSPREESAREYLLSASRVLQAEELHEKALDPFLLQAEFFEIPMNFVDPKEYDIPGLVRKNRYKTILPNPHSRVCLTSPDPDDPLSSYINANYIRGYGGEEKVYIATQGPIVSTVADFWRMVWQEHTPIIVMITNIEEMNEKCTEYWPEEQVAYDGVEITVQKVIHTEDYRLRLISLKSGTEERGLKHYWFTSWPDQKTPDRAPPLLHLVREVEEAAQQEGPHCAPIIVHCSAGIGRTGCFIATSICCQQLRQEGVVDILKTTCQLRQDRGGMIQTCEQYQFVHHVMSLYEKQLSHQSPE
Sequence of Hepatocyte nuclear factor 4-alpha (P41235 whole entry, the tested form may be a part): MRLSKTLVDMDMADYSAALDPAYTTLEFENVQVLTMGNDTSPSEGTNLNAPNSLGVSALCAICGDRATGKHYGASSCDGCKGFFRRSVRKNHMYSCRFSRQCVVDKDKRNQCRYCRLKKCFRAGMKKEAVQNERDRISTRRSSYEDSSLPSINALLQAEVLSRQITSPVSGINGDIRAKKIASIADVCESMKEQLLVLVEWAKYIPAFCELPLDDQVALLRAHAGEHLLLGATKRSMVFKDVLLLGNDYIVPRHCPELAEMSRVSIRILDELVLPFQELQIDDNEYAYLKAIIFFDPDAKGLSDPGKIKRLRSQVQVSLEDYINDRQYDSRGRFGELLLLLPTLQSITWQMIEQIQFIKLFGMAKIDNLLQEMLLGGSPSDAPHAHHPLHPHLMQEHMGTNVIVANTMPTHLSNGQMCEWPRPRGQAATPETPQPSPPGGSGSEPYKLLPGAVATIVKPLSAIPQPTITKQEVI

Question: Which results are given for O=C(N/N=C/c1ccc(OC(=O)c2cccs2)cc1)c1cccc(F)c1?
Answer: IC50 [1]: 3.55 µM (active); IC50 [2]: 24.9 µM (inactive); IC50 [3]: 11.2 µM (active); IC50 [4]: 1.37 µM (active); IC50 [5]: 9.39 µM (active); IC50 [6]: 17.2 µM (active); IC50 [7]: 2.45 µM (active)

Question: For O=C(c1ccccc1)N1CCN(c2cc(Cl)nc3cc(-c4cccc(Cl)c4)nn23)CC1, which EC50 [8] is on record?
Answer: 1.8 µM (active)

Question: And the EC50 [9]?
Answer: 3.98 µM (active)

Question: Which AC50 [10] does the source give for C/C=C/c1ccc([C@H]2[C@@H](CO)N(Cc3ccccn3)[C@@H]2CNC(C)=O)cc1 here?
Answer: 93.3 µM (active)

Question: For CC(C)(C)NC(=O)C(c1ccc(C(F)(F)F)cc1)n1c(=O)c(-c2ccco2)nc2ccccc21 (centres undefined), which IC50 [11] is on record?
Answer: 1.81 µM (active)

Question: With O=C(CNc1cccc2ccccc12)N/N=C/c1ccc([N+](=O)[O-])cc1 as the compound, how does the IC50 [12] read?
Answer: 80 µM (inactive)

Question: And the EC50 [13]?
Answer: > 260 µM (inactive)

Question: What about the IC50 [14] of the same compound?
Answer: 44.3 µM (active)
